The source made the active and inactive calls. The rule behind the calls is not given here.
Experiments:
[1] = Cytotoxicity in human SH-SY5Y cells assessed as reduction in cell viability incubated for 48 hrs by MTT assay; format: toxicity, cell-based
[2] = Selectivity index, ratio of IC50 for inhibition of equine serum BuChE to IC50 for inhibition of electric eel AChE
Beta-secretase 1 [3] = molecular target: T1, Beta-secretase 1 (Homo sapiens, UniProt P56817); experiment: Inhibition of recombinant human BACE1 using fluorogenic polypeptide Mca-SEVNLDAEFRK(Dpn)RRNH2 as substrate at 10 uM incubated for 60 mins by FRET assay relative to control
Cholinesterase = Cholinesterase (Equus caballus, UniProt P81908); experiment: Inhibition of equine serum BuChE using butylthiocholine iodine as substrate preincubated for 20 mins followed by substrate addition and measured after 20 mins by DTNB reagent based Ellman's method
[4] = Cytotoxicity in human HepG2 cells assessed as reduction in cell viability incubated for 48 hrs by MTT assay; format: toxicity, cell-based
Acetylcholinesterase [5] = molecular target: T2, Acetylcholinesterase (Electrophorus electricus, UniProt O42275); experiment: Inhibition of electric eel AChE using acetylthiocholine iodine as substrate preincubated for 20 mins followed by substrate addition and measured after 20 mins by DTNB reagent based Ellman's method
Beta-secretase 1 [6] = molecular target: T1, Beta-secretase 1; experiment: Inhibition of recombinant human BACE1 using fluorogenic polypeptide Mca-SEVNLDAEFRK(Dpn)RRNH2 as substrate incubated for 60 mins by FRET assay
[7] = Acute toxicity in KM mouse assessed as change in survival rate upto 1000 mg/kg,ip and measured after 14 days; format: organism-based; conditions: in vivo, 336 h, time 14 day
[8] = Acute toxicity in KM mouse assessed as body weight change upto 1000 mg/kg,ip and measured after 14 days; format: organism-based; conditions: in vivo, 336 h, time 14 day
[9] = molecular target: Acetylcholinesterase (Electrophorus electricus) (UniProt O42275); experiment: Competitive inhibition of electric eel AChE assessed as increase in slope using acetylthiocholine iodine as substrate preincubated for 20 mins followed by concentrations of substrate addition and measured after 20 mins by Lineweaver-Burk plot analysis; conditions: time 40.0 min
[10] = Effective permeability of the compound in PBS buffer at pH 7.4/EtOH buffer (7:3) incubated for 20 hrs by UV-plate spectroscopy based PAMPA-BBB assay
[11] = Acute toxicity in KM mouse assessed as change in behavior upto 1000 mg/kg,ip and measured after 14 days; format: organism-based; conditions: in vivo, 336 h, time 14 day
Acetylcholinesterase [12] = molecular target: T2, Acetylcholinesterase; experiment: Competitive inhibition of electric eel AChE assessed as dissociation constant using acetylthiocholine as substrate by Lineweaver-Burk plot analysis
[13] = Cytotoxicity in human HL7702 cells assessed as reduction in cell viability incubated for 48 hrs by MTT assay; format: toxicity, cell-based; conditions: HL7702 (L02) cells
Beta-secretase 1 [14] = molecular target: T1, Beta-secretase 1; experiment: Inhibition of BACE1 (unknown origin)
[15] = molecular target: Glycogen synthase kinase-3 beta (Homo sapiens, UniProt P49841); experiment: Inhibition of GSK-3beta (unknown origin)
Sequence of Glycogen synthase kinase-3 beta (P49841 whole entry): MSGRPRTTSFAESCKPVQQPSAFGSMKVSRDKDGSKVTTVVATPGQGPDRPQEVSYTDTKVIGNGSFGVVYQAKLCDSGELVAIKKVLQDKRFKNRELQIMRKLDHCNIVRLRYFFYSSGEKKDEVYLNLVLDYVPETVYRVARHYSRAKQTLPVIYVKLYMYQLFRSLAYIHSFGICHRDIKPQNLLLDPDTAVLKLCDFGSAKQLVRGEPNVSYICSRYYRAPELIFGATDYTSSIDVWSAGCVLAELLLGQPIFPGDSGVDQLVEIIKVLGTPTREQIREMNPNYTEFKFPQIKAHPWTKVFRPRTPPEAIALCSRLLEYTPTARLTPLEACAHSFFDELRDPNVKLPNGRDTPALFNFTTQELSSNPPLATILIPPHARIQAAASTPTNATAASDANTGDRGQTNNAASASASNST

T1 sequence (P56817 whole entry): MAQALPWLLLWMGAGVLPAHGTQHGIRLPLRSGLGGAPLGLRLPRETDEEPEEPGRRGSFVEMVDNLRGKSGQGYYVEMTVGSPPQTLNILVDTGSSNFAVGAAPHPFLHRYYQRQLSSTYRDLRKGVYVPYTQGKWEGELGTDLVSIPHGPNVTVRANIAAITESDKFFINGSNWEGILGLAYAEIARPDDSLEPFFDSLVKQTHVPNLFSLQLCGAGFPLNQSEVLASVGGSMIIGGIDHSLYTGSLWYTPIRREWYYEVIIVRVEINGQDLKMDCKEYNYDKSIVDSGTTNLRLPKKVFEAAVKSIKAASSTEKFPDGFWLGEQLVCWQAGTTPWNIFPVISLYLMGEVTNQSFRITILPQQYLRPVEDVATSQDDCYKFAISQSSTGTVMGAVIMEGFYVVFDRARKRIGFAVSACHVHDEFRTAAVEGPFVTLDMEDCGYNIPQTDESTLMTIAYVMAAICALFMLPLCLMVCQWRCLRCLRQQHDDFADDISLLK
T2 sequence (O42275 whole entry): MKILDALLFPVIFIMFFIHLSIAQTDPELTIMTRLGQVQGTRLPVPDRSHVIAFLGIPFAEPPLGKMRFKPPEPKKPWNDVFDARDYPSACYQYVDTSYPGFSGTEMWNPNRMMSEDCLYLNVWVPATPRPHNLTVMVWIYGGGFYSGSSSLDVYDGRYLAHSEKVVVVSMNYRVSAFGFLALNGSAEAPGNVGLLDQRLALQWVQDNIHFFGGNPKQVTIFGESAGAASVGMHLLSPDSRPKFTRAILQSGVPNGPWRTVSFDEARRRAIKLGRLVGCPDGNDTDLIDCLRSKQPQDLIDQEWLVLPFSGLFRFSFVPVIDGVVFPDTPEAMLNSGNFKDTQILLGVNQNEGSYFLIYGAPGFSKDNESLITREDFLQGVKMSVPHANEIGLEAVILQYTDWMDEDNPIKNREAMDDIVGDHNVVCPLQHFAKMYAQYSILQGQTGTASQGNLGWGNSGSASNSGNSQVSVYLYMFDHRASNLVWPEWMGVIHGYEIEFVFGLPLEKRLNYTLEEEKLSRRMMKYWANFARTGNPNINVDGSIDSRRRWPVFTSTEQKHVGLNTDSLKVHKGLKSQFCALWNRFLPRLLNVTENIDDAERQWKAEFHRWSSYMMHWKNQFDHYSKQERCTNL
Sequence of Cholinesterase (P81908 whole entry): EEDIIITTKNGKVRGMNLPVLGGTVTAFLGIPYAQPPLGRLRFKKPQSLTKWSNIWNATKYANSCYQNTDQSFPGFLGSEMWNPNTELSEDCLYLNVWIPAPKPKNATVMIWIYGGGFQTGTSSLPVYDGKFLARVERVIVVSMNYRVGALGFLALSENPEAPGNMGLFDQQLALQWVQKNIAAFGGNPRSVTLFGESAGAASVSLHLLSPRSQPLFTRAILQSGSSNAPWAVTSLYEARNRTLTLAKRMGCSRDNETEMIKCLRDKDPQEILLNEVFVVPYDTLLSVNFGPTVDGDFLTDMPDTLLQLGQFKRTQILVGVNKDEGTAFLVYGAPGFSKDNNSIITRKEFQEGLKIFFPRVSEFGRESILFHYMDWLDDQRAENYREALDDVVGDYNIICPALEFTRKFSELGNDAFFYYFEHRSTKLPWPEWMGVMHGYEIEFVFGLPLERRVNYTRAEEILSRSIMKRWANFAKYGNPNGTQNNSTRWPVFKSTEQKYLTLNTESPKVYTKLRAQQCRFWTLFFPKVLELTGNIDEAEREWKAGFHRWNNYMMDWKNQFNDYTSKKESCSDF
Sequence of Acetylcholinesterase (Electrophorus electricus) (O42275 24-633 limits assumed): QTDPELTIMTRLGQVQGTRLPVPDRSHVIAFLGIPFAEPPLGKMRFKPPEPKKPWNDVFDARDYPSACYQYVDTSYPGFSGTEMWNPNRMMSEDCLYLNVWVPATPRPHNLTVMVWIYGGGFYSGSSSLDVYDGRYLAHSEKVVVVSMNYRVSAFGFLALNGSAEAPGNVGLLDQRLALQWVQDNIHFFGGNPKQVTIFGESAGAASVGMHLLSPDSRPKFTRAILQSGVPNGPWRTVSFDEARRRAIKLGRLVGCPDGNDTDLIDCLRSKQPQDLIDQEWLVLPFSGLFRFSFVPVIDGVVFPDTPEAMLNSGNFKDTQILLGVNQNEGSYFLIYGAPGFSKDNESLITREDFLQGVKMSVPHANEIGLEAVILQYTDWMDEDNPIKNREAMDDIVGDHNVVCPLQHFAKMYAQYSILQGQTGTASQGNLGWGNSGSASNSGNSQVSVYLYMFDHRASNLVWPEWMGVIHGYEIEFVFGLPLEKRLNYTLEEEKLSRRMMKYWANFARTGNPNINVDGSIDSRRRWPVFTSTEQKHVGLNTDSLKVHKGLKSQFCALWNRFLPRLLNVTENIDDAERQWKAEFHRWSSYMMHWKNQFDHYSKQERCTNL

Row | Compound | IC50 at 48 h [1] [µM] | Ratio IC50 [2] | inhibition (Beta-secretase 1 [3]) [%] | IC50 (Cholinesterase) [µM] | IC50 at 48 h [4] [µM] | IC50 (Acetylcholinesterase [5]) [µM] | IC50 (Beta-secretase 1 [6]) [µM] | Activity [7] | Activity [8] | inhibition [9] | Papp at 20 h [10] [×10⁻⁶ cm/s] | Activity [11] | Ki (Acetylcholinesterase [12]) [µM] | IC50 at 48 h [13] [µM] | IC50 (Beta-secretase 1 [14]) [µM] | IC50 [15] [µM]
1 | Cc1ccc(CNC2CCN(CCCOc3cc(=O)oc4cc(-c5cccnc5)ccc34)CC2)cc1 | 16.5 | 1.15 | 36.4 | 16.3 | 9.93 | 14.2 |  |  |  |  |  |  |  |  |  | 
2 | O=C(Nc1cc(-c2ccc3c(OCCCNC4CCN(Cc5ccccc5)CC4)cc(=O)oc3c2)ccn1)c1ccccc1 | 1.5 | > 3.7 |  | > 50 | 1.91 | 13.5 |  |  |  |  |  |  |  |  |  | 
3 | O=c1cc(OCCCNC2CCN(Cc3ccccc3)CC2)c2ccc(-c3cccnc3)cc2o1 | 10.7 | 24.6 | 86.8 | 32.3 | 10.2 | 1.31 | 1.23 | Non-Toxic | Non-Toxic | Active | 22.8 | Non-Toxic | 2.64 | 34.7 |  | 
4 | O=c1cc(OCCCNC2CCN(Cc3ccccc3)CC2)c2ccc(-c3ccc(F)cc3)cc2o1 | 6.69 | > 1.46 |  | > 50 | 9.14 | 34.3 |  |  |  |  |  |  |  |  |  | 
5 | O=c1cc(OCCCN2CCC(NCc3ccc(F)c(F)c3)CC2)c2ccc(-c3cccnc3)cc2o1 | 5.36 | 1.78 | 93.8 | 22.8 | 9.72 | 12.7 | 1.81 |  |  |  | 9.4 |  |  | 8.05 |  | 
6 | O=c1cc(OCCCN2CCC(CNCc3ccccc3F)CC2)c2ccc(-c3cccnc3)cc2o1 | 6.49 | 2.91 | 67.2 | 31.1 | 4.26 | 10.7 |  |  |  |  |  |  |  |  |  | 
7 | Nc1c2c(nc3ccccc13)CCCC2 [TACRINE] |  |  |  |  |  |  |  |  |  |  | 8.04 |  |  |  |  | 
8 | O=c1cc(OCCCN2CCOCC2)c2ccc(-c3cccnc3)cc2o1 | > 20 | > 3.19 |  | > 50 | > 20 | 15.7 |  |  |  |  |  |  |  |  |  | 
9 | CN(Cc1ccccc1)C1CCN(CCCOc2cc(=O)oc3cc(-c4ccc(F)cc4)ccc23)CC1 | 4.88 | > 11 | 70.9 | > 50 | 3.37 | 4.55 |  |  |  |  |  |  |  |  |  | 
10 | O=c1cc(OCCCNC2CCN(Cc3ccccc3)CC2)c2ccc(-c3ccncc3)cc2o1 | 10.2 | > 22.3 |  | > 50 | 10.6 | 2.24 |  |  |  |  |  |  |  |  |  | 
11 | O=c1cc(OCCCN2CCC(NCc3ccccc3)CC2)c2ccc(-c3ccc(F)nc3)cc2o1 | 12.2 | 12.5 |  | 44.2 | 8.49 | 3.54 |  |  |  |  |  |  |  |  |  | 
12 | O=c1cc(OCCCN2CCC(NCc3ccccc3)CC2)c2ccc(Br)cc2o1 | > 20 | 1.58 | 72.8 | 35.7 | 11.8 | 22.7 |  |  |  |  |  |  |  |  |  | 
13 | COc1ccc(CNC2CCN(CCCOc3cc(=O)oc4cc(-c5cccnc5)ccc34)CC2)cc1 | 6.81 | 0.982 | 82 | 11.3 | 9.12 | 11.6 |  |  |  |  |  |  |  |  |  | 
14 | CN(Cc1ccccc1)C1CCN(CCCOc2cc(=O)oc3cc(-c4ccc(F)nc4)ccc23)CC1 | 15.6 | > 12.3 | 61.3 | > 50 | 10.4 | 4.07 |  |  |  |  |  |  |  |  |  | 
15 | Cc1cccc(CNC2CCN(CCCOc3cc(=O)oc4cc(-c5cccnc5)ccc34)CC2)c1 | 12 | 1.12 |  | 18.6 | 13.1 | 16.6 |  |  |  |  |  |  |  |  |  | 
16 | C[C@@]1(c2cc(-c3cncnc3)c(F)cc2F)CCSC(N)=N1 |  |  | 80.3 |  |  |  |  |  |  |  |  |  |  |  |  | 

Row | Compound | IC50 at 48 h [1] [µM] | Ratio IC50 [2] | inhibition (Beta-secretase 1 [3]) [%] | IC50 (Cholinesterase) [µM] | IC50 at 48 h [4] [µM] | IC50 (Acetylcholinesterase [5]) [µM] | IC50 (Beta-secretase 1 [6]) [µM] | Activity [7] | Activity [8] | inhibition [9] | Papp at 20 h [10] [×10⁻⁶ cm/s] | Activity [11] | Ki (Acetylcholinesterase [12]) [µM] | IC50 at 48 h [13] [µM] | IC50 (Beta-secretase 1 [14]) [µM] | IC50 [15] [µM]
17 | O=c1cc(OCCCN2CCC(NCc3ccccc3F)CC2)c2ccc(-c3cccnc3)cc2o1 | 19.1 | > 4.31 |  | > 50 | 15.1 | 11.6 |  |  |  |  |  |  |  |  |  | 
18 | O=c1cc(OCCCN2CCC(NCc3ccccc3)CC2)c2ccc(-c3ccncc3)cc2o1 | 16.4 | > 2.97 | 49.4 | > 50 | 13.9 | 16.8 |  |  |  |  |  |  |  |  |  | 
19 | O=c1cc(OCCCNC2CCN(Cc3ccccc3)CC2)c2ccc(-c3ccc(F)nc3)cc2o1 | 5.75 | > 29 |  | > 50 | 3.93 | 1.72 |  |  |  |  |  |  |  |  |  | 
20 | COc1cccc(CNC2CCN(CCCOc3cc(=O)oc4cc(-c5cccnc5)ccc34)CC2)c1 | 19.3 | > 4.03 | 48.8 | 11.3 | 11.4 | 12.4 |  |  |  |  |  |  |  |  |  | 
21 | O=c1cc(OCCCN2CCC(NCc3ccsc3)CC2)c2ccc(-c3cccnc3)cc2o1 | 14.2 | 3.03 | 64.7 | 9.98 | 14.1 | 3.29 |  |  |  |  | 15.4 |  |  | 36.2 |  | 
22 | CC(C)=CC(O)C/C(C)=C/COc1c2ccoc2cc2oc(=O)ccc12 (configuration not stated) [NOTOPTEROL] | > 20 |  | 10.2 | > 100 | > 20 | > 100 | 26 |  |  |  |  |  |  |  | 26 | 1
23 | O=C(Nc1cc(-c2ccc3c(OCCCN4CCC(NCc5ccccc5)CC4)cc(=O)oc3c2)ccn1)C1CC1 | 1.87 | 2.99 | 34.7 | 29 | 3.34 | 9.69 |  |  |  |  |  |  |  |  |  | 
24 | O=C(Nc1cc(-c2ccc3c(OCCCNC4CCN(Cc5ccccc5)CC4)cc(=O)oc3c2)ccn1)C1CC1 | 3.41 | > 7.41 | 30.9 | > 50 | 3.65 | 6.75 |  |  |  |  |  |  |  |  |  | 
25 | O=c1cc(OCCCN2CCC(NCc3cccc(F)c3)CC2)c2ccc(-c3cccnc3)cc2o1 | 14.4 | 2.82 | 34 | 28.4 | 14.6 | 10.1 |  |  |  |  |  |  |  |  |  | 
26 | O=c1cc(OCCCNC2CCN(Cc3ccccc3)CC2)c2ccc(-c3ccnc(F)c3)cc2o1 | 5.56 | > 23.4 |  | > 50 | 5.95 | 2.14 |  |  |  |  |  |  |  |  |  | 
27 | COc1cccc(/C=N/C2CCN(Cc3ccccc3)CC2)c1OC |  |  |  |  |  |  |  |  |  |  |  |  |  |  |  | > 15
28 | N#Cc1cccc(CNC2CCN(CCCOc3cc(=O)oc4cc(-c5cccnc5)ccc34)CC2)c1 | 12.4 | > 6.87 | 89.5 | > 50 | 3.26 | 7.28 |  |  |  |  |  |  |  |  |  | 
29 | O=c1cc(OCCCN2CCC(NCc3cccc([N+](=O)[O-])c3)CC2)c2ccc(-c3cccnc3)cc2o1 | 8.37 | > 1.37 | 46.1 | > 50 | 9.29 | 36.5 |  |  |  |  |  |  |  |  |  | 
30 | O=c1cc(OCCCN2CCC(NCc3ccc(F)cc3)CC2)c2ccc(-c3cccnc3)cc2o1 | 10.9 | > 1.93 | 22.1 | > 50 | > 20 | 25.9 |  |  |  |  |  |  |  |  |  | 
31 | O=c1cc(OCCCN2CCC(NCc3ccccc3)CC2)c2ccc(-c3cccnc3)cc2o1 | > 20 | 2.3 | 51.4 | 21.4 | > 20 | 9.31 |  |  |  |  |  |  |  |  |  | 
